# From patent publication US20260274922A1, “SYNTHETIC ESTROGEN RECEPTOR (ER)-DERIVED PEPTIDE” (THE TEXAS A&M UNIVERSITY SYSTEM, priority 2023, published 2026)
# Where no end group is shown, it is not given here. The star is where a group is joined. FITC = O=C1OC2(c3ccc(O)cc3Oc3cc(O)ccc32)c2ccc(NC(=S)*)cc21
# Key:
# [1] = system: insulin signaling (IRS1, pAKT); assay: Insulin sensitivity in ERα deficient primary mouse hepatocytes; type: cell-based
# Experimental: (§1) Primary hepatocytes isolation and cell culture. Primary hepatocytes were isolated. Male mice at age of 8-12 weeks were infused with a perfusion buffer A (calcium and magnesium-free HBSS supplemented with 10 mM HEPES, […], 1 mM glucose, and 1% penicillin-streptomycin, pH 7.4) through portal vein for 6-8 min. Then perfusion buffer A was changed to buffer B (calcium and magnesium-free HBSS supplemented with 10 mM HEPES, 1 mM CaCl2), 1 mM glucose, 1% penicillin-streptomycin, and 0.5 mg/mL collagenase II, pH 7.4). […] Liver cells were suspended and passed through a 70 μm cell strainer, followed by centrifuge at 1700 rpm for 2 min. Pellets were resuspended with Percoll at final concentration of 36% and centrifuged at 1800 rpm for 6 min. The hepatocyte pellet was washed and suspended with DMEM supplemented with 10% FBS and 1% penicillin-streptomycin in collagen-coated plates. The HepG2 cell line was purchased from Abcam and cultured with DMEM medium supplemented with 10% FBS and 1% penicillin-streptomycin in collagen-coated plates. The human embryo kidney (HEK) 293 cell line was purchased from Sigma and cultured with DMEM medium supplemented with 10% FBS and 1% penicillin-streptomycin. FBS-free DMEM medium was used to culture cells during the experiments.
# (§2) Co-immunoprecipitation and Western blotting analysis. […] Protein bands were detected using a ChemiDoc image system.
# [2] = system: primary mouse hepatocytes; assay: Hepatic glucose production (HGP) in primary hepatocytes upon glucagon treatment; type: cell-based; details: WT primary hepatocytes
# Experimental: Hepatic glucose production. The primary mouse hepatocytes were isolated from 8-12-week-old male mice. Cells were resuspended in DMEM medium (2% FBS and 1% penicillin-streptomycin) for 3 h and cultured in HGP buffer (118 mM NaCl, 2.5 mM CaCl2, 4.8 mM KCl, 25 mM NaHCO3, 1.1 mM KH2PO4, 1.2 mM MgSO4, […], 0.6% BSA, 10 mM HEPES, 10 mM sodium DL-lactate, and 5 mM pyruvate, pH 7.4). Then cells were pretreated with 50 nM glucagon for 30 min, followed by 10 nM insulin treatment for 3 h, and glucose level in the medium was measured using Amplex Red Glucose Assay. The results were normalized by cell protein abundance.
# IRS1 = target: T1, IRS1 (Mus musculus, UniProt P35569); assay: Effect of AF1 peptide on IRS1 phosphorylation at S302 in primary mouse hepatocytes (Western blot); type: cell-based; details: WT primary hepatocytes
# T1 construct: increased IRS1 protein levels by 50% (p<0.05) in WT primary hepatocytes; endogenous in cells; host or cells: primary mouse hepatocytes (C57BL/6J background; WT, ERα F/F or ERα LivKO)
# T1 sequence (P35569 1-1233): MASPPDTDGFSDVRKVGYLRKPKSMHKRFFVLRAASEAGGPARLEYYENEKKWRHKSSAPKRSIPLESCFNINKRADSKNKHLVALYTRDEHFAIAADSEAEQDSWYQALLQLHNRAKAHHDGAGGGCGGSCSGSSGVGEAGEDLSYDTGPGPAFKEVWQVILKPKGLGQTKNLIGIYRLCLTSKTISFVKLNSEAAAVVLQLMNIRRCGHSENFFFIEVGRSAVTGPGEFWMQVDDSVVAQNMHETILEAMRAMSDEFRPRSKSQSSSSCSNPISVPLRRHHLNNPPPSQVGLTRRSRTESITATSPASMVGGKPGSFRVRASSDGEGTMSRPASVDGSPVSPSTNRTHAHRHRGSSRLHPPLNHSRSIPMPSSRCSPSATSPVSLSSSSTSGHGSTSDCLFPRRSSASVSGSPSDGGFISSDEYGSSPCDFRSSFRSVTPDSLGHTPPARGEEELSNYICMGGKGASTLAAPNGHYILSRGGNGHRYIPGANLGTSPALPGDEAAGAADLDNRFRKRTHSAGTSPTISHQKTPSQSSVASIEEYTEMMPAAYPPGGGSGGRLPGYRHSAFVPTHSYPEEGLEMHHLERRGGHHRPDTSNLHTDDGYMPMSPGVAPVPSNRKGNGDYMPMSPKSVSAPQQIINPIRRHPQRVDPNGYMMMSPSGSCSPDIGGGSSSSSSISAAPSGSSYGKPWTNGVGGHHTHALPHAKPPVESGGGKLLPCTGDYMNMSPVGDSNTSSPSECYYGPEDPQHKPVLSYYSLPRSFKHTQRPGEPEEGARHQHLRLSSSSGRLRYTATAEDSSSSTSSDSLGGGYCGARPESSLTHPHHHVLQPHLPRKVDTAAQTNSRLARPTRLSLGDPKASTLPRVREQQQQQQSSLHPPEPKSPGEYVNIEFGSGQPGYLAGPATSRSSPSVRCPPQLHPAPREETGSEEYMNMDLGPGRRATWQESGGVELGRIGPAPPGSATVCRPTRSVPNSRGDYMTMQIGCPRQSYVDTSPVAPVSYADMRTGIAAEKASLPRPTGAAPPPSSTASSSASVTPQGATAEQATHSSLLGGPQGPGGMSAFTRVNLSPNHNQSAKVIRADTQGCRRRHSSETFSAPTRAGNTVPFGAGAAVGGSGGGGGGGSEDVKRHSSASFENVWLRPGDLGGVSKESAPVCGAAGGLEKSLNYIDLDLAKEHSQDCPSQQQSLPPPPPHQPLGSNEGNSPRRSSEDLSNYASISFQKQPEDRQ
# Experimental: as §1, §2
# IRS1 protein domains = target: T2, IRS1 protein domains (Homo sapiens, UniProt P35568); assay: AF1 peptide and IRS1 protein interaction (co-immunoprecipitation, FITC signal); type: binding; details: HEK293 cells, 10 μM FITC-labelled peptide 3 h
# T2 construct: expressed in transfected cells; host or cells: HEK293
# T2 sequence (P35568 1-300): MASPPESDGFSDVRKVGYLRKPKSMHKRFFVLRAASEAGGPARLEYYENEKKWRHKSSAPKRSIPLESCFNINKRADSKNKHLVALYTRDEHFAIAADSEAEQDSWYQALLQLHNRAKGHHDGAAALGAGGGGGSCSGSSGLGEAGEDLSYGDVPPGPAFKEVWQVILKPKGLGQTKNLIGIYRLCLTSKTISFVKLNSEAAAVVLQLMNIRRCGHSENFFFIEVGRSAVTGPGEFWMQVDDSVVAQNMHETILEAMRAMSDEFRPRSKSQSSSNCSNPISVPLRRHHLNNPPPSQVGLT
# Experimental: AF1 peptide and IRS1 protein interaction. HEK293 cells were transfected with Flag-IRS1 or Flag-IRS1 truncated domains using lipofectamine 3000 for 30 h, followed by treatment of 10 μM control and AF1 peptides labelled with FITC fluorescence for 3 h. After 10 μM MG132 treatment for 1 h, cell protein was extracted, and Flag-labelled proteins were immunoprecipitated. The intensity of control and AF1 peptide was calculated through measuring FITC fluorescence signal with multiplex reader. The results were normalized using IgG group.
# [3] = system: insulin signaling (IRS1, pAKT); assay: Insulin sensitivity in WT primary mouse hepatocytes (IRS1, insulin-stimulated AKT phosphorylation); type: cell-based
# Experimental: as §1, §2
# [4] = ERα deficient primary hepatocytes
sequence,measurement,setting,value
YGRKKRRQRRRTKASGMALLHEPLNRPQLKIPLERDSSKPAVYNY ({FITC}-YGRKKRRQRRRTKASGMALLHEPLNRPQLKIPLERDSSKPAVYNY) [AF1 peptide],increase in IRS1 protein levels,[1]; [4],80%
same,increase in pAKT-S473 protein levels,[1]; [4],46%
same,increase in pAKT-T308 protein levels,[1]; [4],50%
same,rescue of ERα deficiency-induced insulin resistance,[1]; compared to ERαF/F hepatocytes,partially rescued
same,glucagon-induced hepatic glucose production (HGP),[2],did not impair
same,enhancement of insulin-mediated suppression of HGP,[2]; under glucagon challenge,22%
same,decrease in pIRS1-S302,IRS1,75%
same,increase in IRS1 protein levels,IRS1; FIG. 6G,50%
same,interaction with IRS1 protein domains,IRS1 protein domains,interacted with the IRS1 1-300 domain
same,enhancement in insulin-stimulated AKT phosphorylation at S473,[3],210%
same,enhancement in insulin-stimulated AKT phosphorylation at T308,[3],82%
same,increase in IRS1 protein levels,[3]; FIG. 6J,90%
